Results as given in paper PMC10672402 (Marine Drugs, 2023).

What was measured:
[1] = molecular target: T1, acetylcholinesterase (AChE) (Homo sapiens, UniProt P22303); test: acetylcholinesterase (AChE) inhibition, modified Ellman method; format: biochemical; conditions: concentration of 50 μg/mL; read-out: inhibition rate against AChE
T1 construct: purchased Solarbio, Beijing, China

pancreatic lipase (PL) = molecular target: T2, pancreatic lipase (PL) (Homo sapiens, UniProt P16233); test: pancreatic lipase (PL) inhibitory assay; format: biochemical
T2 sequence (P16233 17-465): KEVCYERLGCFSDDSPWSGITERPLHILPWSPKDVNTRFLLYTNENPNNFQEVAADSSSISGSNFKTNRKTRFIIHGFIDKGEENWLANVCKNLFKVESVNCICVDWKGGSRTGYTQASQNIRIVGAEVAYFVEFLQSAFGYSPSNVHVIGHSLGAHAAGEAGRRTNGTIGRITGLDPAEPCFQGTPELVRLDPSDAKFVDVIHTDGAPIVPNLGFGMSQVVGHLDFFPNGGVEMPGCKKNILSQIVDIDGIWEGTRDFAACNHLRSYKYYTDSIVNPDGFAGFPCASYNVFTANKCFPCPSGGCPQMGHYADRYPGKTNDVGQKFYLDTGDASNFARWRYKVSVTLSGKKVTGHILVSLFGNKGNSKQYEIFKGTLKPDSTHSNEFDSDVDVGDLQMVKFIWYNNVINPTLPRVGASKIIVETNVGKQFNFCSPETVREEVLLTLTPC

T1 sequence (P22303 32-614, species assumed): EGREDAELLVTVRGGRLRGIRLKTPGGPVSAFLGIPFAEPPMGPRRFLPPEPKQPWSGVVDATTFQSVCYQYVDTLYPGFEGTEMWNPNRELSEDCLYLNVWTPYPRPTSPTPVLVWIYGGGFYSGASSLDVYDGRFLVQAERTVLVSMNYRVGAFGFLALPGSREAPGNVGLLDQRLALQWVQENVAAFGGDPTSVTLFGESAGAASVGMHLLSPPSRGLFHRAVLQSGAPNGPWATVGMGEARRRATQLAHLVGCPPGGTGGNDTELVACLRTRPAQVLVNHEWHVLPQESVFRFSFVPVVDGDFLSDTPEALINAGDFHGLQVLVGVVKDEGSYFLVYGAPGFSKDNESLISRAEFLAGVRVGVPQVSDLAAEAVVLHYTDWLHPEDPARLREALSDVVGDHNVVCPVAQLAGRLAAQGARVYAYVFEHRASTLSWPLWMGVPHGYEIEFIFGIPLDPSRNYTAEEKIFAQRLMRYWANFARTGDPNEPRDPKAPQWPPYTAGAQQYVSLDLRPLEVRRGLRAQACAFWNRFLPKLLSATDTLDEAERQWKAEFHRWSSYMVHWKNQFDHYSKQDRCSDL

`CCC(C)C1(O)OC(C)C2(OC)C(=O)C(C)=C(OC)C12` (centres unmarked) [Compound 1, asperpentenone B] gave an inhibition at 50 µg/mL [1] of 20 to 26%.
For `C/C=C/C=C/[C@@H]1Cc2c(CC(=O)O)c(O)cc(O)c2O1` [Compound 3, asperpentenone D], the IC50 (pancreatic lipase (PL)) was 127 µM.
Work on `CCC(C)C(=O)Cc1oc(=O)c(C)c(O)c1C` (centres unmarked) [Compound 10, paecilpyrone A] yielded an inhibition at 50 µg/mL [1] of 20 to 26%.
In the case of `COC(=O)Cc1cccc(O)c1` [Compound 13, methyl-hydroxyphenylaceta], the inhibition at 50 µg/mL [1] is reported as 20 to 26%.
`COc1cc(/C=C/C(=O)O)ccc1O` [Compound 14, trans-ferulic acid] was tested, and the inhibition at 50 µg/mL [1] was 20 to 26%.
